{"source": "patent US8999937B2", "about": "“Glucocorticoid induced leucine zipper mimetics as therapeutic agents in multiple sclerosis” (Indiana University Research and Technology Corporation, priority 2011, dated 2015)", "system": "CD4+ LNC from PLP primed SJL/J mice", "test": "In vitro proliferation ([3H]-thymidine) of PLP139-151 restimulated CD4+ LNC from primed SJL/J mice", "type": "cell-based, mouse", "details": "with Pep-1, PLP 40 μg/ml, 72 h", "description": "CD4+ lymph node cells (LNC) isolated from the draining lymph nodes harvested from SJL/J mice 10 days after immunization with PLP139-151 were cultured in 96-well plates at […] in complete RPMI and restimulated with the PLP peptide (40 μg/ml) for 72 h, including a final 16-h pulse with [^3H]-thymidine. […] Separate cultures stimulated with ova (40 μg/ml) served as control for antigen specificity. Irradiated splenocytes from syngenic mice were used as antigen presenting cells (APC). Cultures were harvested onto glass fiber mats using a Skatron harvester (Skatron, Sterling, Va.), and the levels of [^3H]-thymidine incorporation were determined by liquid scintillation counting (Microbeta; Wallac, Turku, Finland). Results were confirmed by replicate experiments. Data are expressed as Δcpm (counts/min incorporated in antigen-stimulated culture-counts/min incorporated by control unstimulated culture).\nSupernatants collected at 24 and 48 h were assessed for specific cytokines using the OptEIA kits (BD Biosciences). Proliferation assays included parallel cultures for 72 h with a final 18-h pulse with [^3H]thymidine measured by liquid scintillation counting (Microbeta, Turku, Finland)."}
{"compound": "C[C@@H]1C[C@H]2[C@@H]3CCC4=CC(=O)C=C[C@]4(C)[C@@]3(F)[C@@H](O)C[C@]2(C)[C@@]1(O)C(=O)CO", "note": "[dexamethasone, reference compound]", "values": [{"measurement": "proliferative response (Δcpm)", "result": "2226+/−327 cpm"}]}
